Reference: patent publication US8946201B2, “Methods for inhibiting TGF-β” (Saint Louis University, priority 2007, dated 2015)

Key:
[1] = tested on: Smad2 phosphorylation stimulated by TGF-β1; assay: TGF-β1-stimulated Smad2 phosphorylation, Western blot, NRK cells; type: cell-based, rat; settings: 25 μg/ml, 37° C. 1 hr, then 50 pM TGF-β1 0.5 hr
Description: Cells were treated with increasing concentrations of cholesterol, as indicated (A, B, C), 50 μg protein/ml LDL (D), 5 μg protein/ml VLDL (D) or 50 μg/ml cholesterol (E) at 37° C. for 1 hr and then further incubated with 50 pM TGF-β1 for 30 min. Phosphorylated Smad2 (P-Smad2) and total Smad2 in the cell lysates were analyzed by 7.5% SDS-PAGE and followed by immunoblot analysis using anti-P-Smad2 and anti-Smad2 antibodies. A representative of a total of 3 analyses is shown (top). The quantitative analysis of the immunoblots is shown (bottom). […] Smad2 nuclear translocation was analyzed by indirect immunofluorescent staining using P-Smad2 antibody and rhodamine-labeled 2nd antibody (E). Rhodamine fluorescence represents P-Smad2 staining (a,b,c) whereas the nuclei were stained by DAPI staining (d,e,f).
Cells grown to near confluence on 12-well cluster dishes were treated with cholesterol or LDL in serum-free DMEM (vol.=0.5 ml/well) at 37° C. for 1 hr. […] Treated cells were lysed and cell lysates were analyzed by 7.5% SDS-PAGE and Western blot analysis using anti-Smad2, anti-P-Smad2, anti-caveolin-1, anti-TβR-I (alk5) or anti-TβR-II antibodies as described previously (30). […]
It has been reported that TGF-β responsiveness is determined by TGF-β partitioning between lipid raft/caveolae-mediated and clathrin-mediated endocytosis. […]

TβR-I and TβR-II = assay: 125I-TGF-β1 affinity labeling, CHO-K1 cells; type: cell-based, Chinese hamster; settings: 1 μM, 37° C. 16 hr, 0.12 untreated
Description: (A, B, C, D, E, F) Cells were treated with LDL (50 μg protein/ml), VLDL (5 μg protein/ml), HDL (50 μg protein/ml), lipoprotein (a) (10 μg/ml), fluvastatin (F; 1 μM), lovastatin (L; 1 μM), nystatin (Nys; 25 μg/ml), β-CD (β-CD; 8 mM), cholest-4-en-3-one (3-one; 50 μg/ml) or cholesterol (Chol; 50 μg/ml) alone or combination of two. After 1 hr at 37° C. or 16 hr at 37° C. (for fluvastatin and lovastatin), ^125I-TGF-β1 affinity labeling of cell-surface TGF-β receptors was performed at 0° C. ^125I-TGF-β1 affinity-labeled TβR-I and TβR-II were analyzed by 7.5% SDS-PAGE and autoradiography. The relative intensities of TβR-I and TβR-II were quantified with a PhosphoImager. The ratio of ^125I-TGF-β1 binding to TβR-II and TβR-I were estimated. The numbers above the lane sequence denote the ratio of TβR-II/TβR-I.
After cross-linking, cell lysates were analyzed by 7.5% SDS-PAGE and autoradiography or quantified by a PhosphoImager. For all experiments, cholesterol or cholesterol derivatives were prepared as the stock solution with a concentration of 25 mg/ml in ethanol. The final concentration of ethanol in the medium was 0.2% (by vol.). […]

SMILES | suppression of Smad2 phosphorylation stimulated by TGF-β1 [1] | ratio of TβR-II/TβR-I (TβR-I and TβR-II)
CC(C)CCC[C@@H](C)[C@H]1CC[C@H]2[C@@H]3CC=C4C[C@@H](O)CC[C@]4(C)[C@H]3CC[C@]12C [cholesterol] | 40% | 
CC[C@H](C)C(=O)O[C@H]1C[C@@H](C)C=C2C=C[C@H](C)[C@H](CC[C@@H]3C[C@@H](O)CC(=O)O3)[C@H]21 [lovastatin, reference compound] |  | 0.18
